Measured values: patent US8216786B2, “Genetic polymorphisms associated with cardiovascular diseases, methods of detection and uses thereof” (Celera Corporation, priority 2008, dated 2012)

Tested on: individuals who have previously had an MI
Test: CARE trial: effect of pravastatin vs placebo on coronary events (endpt1, rmi) by SNP genotype subgroup
Format: in vivo, human
Method: In Tables 21-22, the column labeled “Endpoint” indicates whether the endpoint that was analyzed was the primary endpoint of the CARE study (a composite endpoint of fatal coronary event or nonfatal MI, and identified as “endpt1”) or a composite endpoint of confirmed fatal or nonfatal MI (identified as “rmi”). […] As used herein, the term “benefit” (with respect to a preventive or therapeutic drug treatment) is defined as achieving a reduced risk for a disease that the drug is intended to treat or prevent (e.g., CVD such as CHD, particularly MI, or hypertension) by administering the drug treatment, compared with the risk for the disease in the absence of receiving the drug treatment (or receiving a placebo in lieu of the drug treatment) for the same genotype. […] J. […] (1996) New England Journal of Medicine 335: 1001-1009. […] A well-documented MI was one of the enrollment criteria for entry into the CARE study. Patients were enrolled in the CARE trial from 80 participating study centers. […] For the study of CARE described in this Example and shown in Tables 21-22, two endpoints were investigated: the primary endpoint of CARE (a composite endpoint of fatal coronary event or nonfatal MI, and identified as “endpt1” in the Endpoint column of Tables 21-22) and a composite endpoint of confirmed fatal or nonfatal MI (identified as “rmi” in the Endpoint column of Tables 21-22). […] HR stands for Hazard Ratio, which is a concept similar to Odds Ratio (OR). The HR in event-free survival analysis is the effect of an explanatory variable on the hazard or risk of an event. […] In Table 21, p-interaction values were calculated. An interaction (or effect modification) is formed when a third variable modifies the relation between an exposure and outcome. […] Genotype and drug interaction is present when the effect of statins (incidence rate of disease in statin-treated group, as compared to placebo) differs in patients with different genotypes.

[1] = endpt1, hCV370782 rs9841174 SERPINI2, CC
[2] = endpt1, hCV370782 rs9841174 SERPINI2, CT + TT
[3] = endpt1, hCV795442 rs375947 IL12RB1, AA
[4] = endpt1, hCV795442 rs375947 IL12RB1, GA + GG
[5] = endpt1, hCV818008 rs5918 ITGB3, CC
[6] = endpt1, hCV818008 rs5918 ITGB3, CT + TT
[7] = endpt1, hCV904973 rs7412 APOE, CC
[8] = endpt1, hCV904973 rs7412 APOE, TC + TT
[9] = endpt1, hCV997884 rs512770, AG + GG
[10] = endpt1, hCV2553030 rs11230562 CD6, TC + CC
[11] = endpt1, hCV2553030 rs11230562 CD6, TT
[12] = endpt1, hCV2769554 rs1805010 IL4R, GA + AA
[13] = endpt1, hCV2769554 rs1805010 IL4R, GG
[14] = endpt1, hCV2822674 rs1801222 CUBN, AA
[15] = endpt1, hCV2822674 rs1801222 CUBN, AG + GG
[16] = endpt1, hCV2983036 rs9527025 KL, CC
[17] = endpt1, hCV2983036 rs9527025 KL, CG
[18] = endpt1, hCV2983036 rs9527025 KL, GG
[19] = endpt1, hCV2992252 rs6037651 SIGLEC1, CC
[20] = endpt1, hCV2992252 rs6037651 SIGLEC1, CT + TT
[21] = endpt1, hCV3135085 rs10795446 CUBN, GG
[22] = endpt1, hCV3187716 rs5186 AGTR1, CA + AA
[23] = endpt1, hCV3187716 rs5186 AGTR1, CC
[24] = endpt1, hCV3215409 rs267561 ITGA9, GA + AA
[25] = endpt1, hCV3215409 rs267561 ITGA9, GG
[26] = endpt1, hCV3219460 rs1799983 NOS3, TG + GG
[27] = endpt1, hCV3219460 rs1799983 NOS3, TT
[28] = endpt1, hCV7514870 rs1041981 LTA, AA
[29] = endpt1, hCV7514870 rs1041981 LTA, AC + CC
[30] = endpt1, hCV8705506 rs5516 KLK1, CG + CC
[31] = endpt1, hCV8705506 rs5516 KLK1, GG
[32] = endpt1, hCV8708473 rs1800469 TMEM91, AA
[33] = endpt1, hCV8708473 rs1800469 TMEM91, AG + GG
[34] = endpt1, hCV8708474 rs1800468 MGC4093, CC
[35] = endpt1, hCV8708474 rs1800468 MGC4093, TC + TT
[36] = endpt1, hCV8709053 rs4880 SOD2, GA + AA
[37] = endpt1, hCV8709053 rs4880 SOD2, GG
[38] = endpt1, hCV8718197 rs1050998 CXCL16, AA
[39] = endpt1, hCV8718197 rs1050998 CXCL16, GA + GG
[40] = endpt1, hCV8726337 rs5498 ICAM1, AA
[41] = endpt1, hCV8726337 rs5498 ICAM1, GA + GG
[42] = endpt1, hCV8737990 rs419598 IL1RN, CC
[43] = endpt1, hCV8737990 rs419598 IL1RN, CT + TT
[44] = endpt1, hCV8784787 rs688976, AA
[45] = endpt1, hCV8784787 rs688976, AC + CC
[46] = endpt1, hCV8804621 rs1390938 SLC18A1, AA
[47] = endpt1, hCV8804621 rs1390938 SLC18A1, AG + GG
[48] = endpt1, hCV8848630 rs7192 HLA-DRA, GG
[49] = endpt1, hCV8848630 rs7192 HLA-DRA, TG + TT
[50] = endpt1, hCV8851047 rs45614833 HLA-DPA1, CC

SMILES: CC[C@H](C)C(=O)O[C@H]1C[C@H](O)C=C2C=C[C@H](C)[C@H](CC[C@@H](O)C[C@@H](O)CC(=O)O)[C@H]21 [pravastatin]
- Hazard ratio, Pravastatin vs placebo (CARE, SNP hCV11170747, genotype strata in row order): 0.87
- EVENTS (Pravastatin arm) [1]: 20
- NONEVENT (Pravastatin arm) [1]: 194
- EVENTS (Pravastatin arm) [2]: 113
- NONEVENT (Pravastatin arm) [2]: 1097
- EVENTS (Pravastatin arm) [3]: 52
- NONEVENT (Pravastatin arm) [3]: 599
- EVENTS (Pravastatin arm) [4]: 80
- NONEVENT (Pravastatin arm) [4]: 691
- EVENTS (Pravastatin arm) [5]: 7
- NONEVENT (Pravastatin arm) [5]: 26
- EVENTS (Pravastatin arm) [6]: 126
- NONEVENT (Pravastatin arm) [6]: 1266
- EVENTS (Pravastatin arm) [7]: 114
- NONEVENT (Pravastatin arm) [7]: 1149
- EVENTS (Pravastatin arm) [8]: 19
- NONEVENT (Pravastatin arm) [8]: 141
- EVENTS (Pravastatin arm) (endpt1, hCV997884 rs512770, AA): 5
- NONEVENT (Pravastatin arm) (endpt1, hCV997884 rs512770, AA): 42
- EVENTS (Pravastatin arm) [9]: 126
- NONEVENT (Pravastatin arm) [9]: 1241
- EVENTS (Pravastatin arm) [10]: 129
- NONEVENT (Pravastatin arm) [10]: 1179
- EVENTS (Pravastatin arm) [11]: 3
- NONEVENT (Pravastatin arm) [11]: 107
- EVENTS (Pravastatin arm) [12]: 101
- NONEVENT (Pravastatin arm) [12]: 1001
- EVENTS (Pravastatin arm) [13]: 32
- NONEVENT (Pravastatin arm) [13]: 287
- EVENTS (Pravastatin arm) [14]: 10
- NONEVENT (Pravastatin arm) [14]: 150
- EVENTS (Pravastatin arm) [15]: 123
- NONEVENT (Pravastatin arm) [15]: 1140
- EVENTS (Pravastatin arm) [16]: 4
- NONEVENT (Pravastatin arm) [16]: 22
- EVENTS (Pravastatin arm) [17]: 32
- NONEVENT (Pravastatin arm) [17]: 363
- EVENTS (Pravastatin arm) [18]: 97
- NONEVENT (Pravastatin arm) [18]: 906
- EVENTS (Pravastatin arm) [19]: 8
- NONEVENT (Pravastatin arm) [19]: 196
- EVENTS (Pravastatin arm) [20]: 124
- NONEVENT (Pravastatin arm) [20]: 1089
- EVENTS (Pravastatin arm) [21]: 10
- NONEVENT (Pravastatin arm) [21]: 147
- EVENTS (Pravastatin arm) [22]: 128
- NONEVENT (Pravastatin arm) [22]: 1176
- EVENTS (Pravastatin arm) [23]: 5
- NONEVENT (Pravastatin arm) [23]: 112
- EVENTS (Pravastatin arm) [24]: 118
- NONEVENT (Pravastatin arm) [24]: 1057
- EVENTS (Pravastatin arm) [25]: 15
- NONEVENT (Pravastatin arm) [25]: 235
- EVENTS (Pravastatin arm) [26]: 124
- NONEVENT (Pravastatin arm) [26]: 1114
- EVENTS (Pravastatin arm) [27]: 9
- NONEVENT (Pravastatin arm) [27]: 177
- EVENTS (Pravastatin arm) [28]: 12
- NONEVENT (Pravastatin arm) [28]: 172
- EVENTS (Pravastatin arm) [29]: 121
- NONEVENT (Pravastatin arm) [29]: 1118
- EVENTS (Pravastatin arm) [30]: 66
- NONEVENT (Pravastatin arm) [30]: 749
- EVENTS (Pravastatin arm) [31]: 67
- NONEVENT (Pravastatin arm) [31]: 543
- EVENTS (Pravastatin arm) [32]: 9
- NONEVENT (Pravastatin arm) [32]: 139
- EVENTS (Pravastatin arm) [33]: 124
- NONEVENT (Pravastatin arm) [33]: 1153
- EVENTS (Pravastatin arm) [34]: 103
- NONEVENT (Pravastatin arm) [34]: 1068
- EVENTS (Pravastatin arm) [35]: 30
- NONEVENT (Pravastatin arm) [35]: 212
- EVENTS (Pravastatin arm) [36]: 105
- NONEVENT (Pravastatin arm) [36]: 954
- EVENTS (Pravastatin arm) [37]: 28
- NONEVENT (Pravastatin arm) [37]: 335
- EVENTS (Pravastatin arm) [38]: 33
- NONEVENT (Pravastatin arm) [38]: 409
- EVENTS (Pravastatin arm) [39]: 98
- NONEVENT (Pravastatin arm) [39]: 879
- EVENTS (Pravastatin arm) [40]: 31
- NONEVENT (Pravastatin arm) [40]: 430
- EVENTS (Pravastatin arm) [41]: 102
- NONEVENT (Pravastatin arm) [41]: 857
- EVENTS (Pravastatin arm) [42]: 15
- NONEVENT (Pravastatin arm) [42]: 96
- EVENTS (Pravastatin arm) [43]: 117
- NONEVENT (Pravastatin arm) [43]: 1193
- EVENTS (Pravastatin arm) [44]: 6
- NONEVENT (Pravastatin arm) [44]: 57
- EVENTS (Pravastatin arm) [45]: 126
- NONEVENT (Pravastatin arm) [45]: 1234
- EVENTS (Pravastatin arm) [46]: 8
- NONEVENT (Pravastatin arm) [46]: 69
- EVENTS (Pravastatin arm) [47]: 125
- NONEVENT (Pravastatin arm) [47]: 1218
- EVENTS (Pravastatin arm) [48]: 59
- NONEVENT (Pravastatin arm) [48]: 485
- EVENTS (Pravastatin arm) [49]: 74
- NONEVENT (Pravastatin arm) [49]: 802
- EVENTS (Pravastatin arm) [50]: 7
- NONEVENT (Pravastatin arm) [50]: 32
- EVENTS (Pravastatin arm) (endpt1, hCV8851047 rs45614833 HLA-DPA1, CT + TT): 126
